Results from article PMC12072338, “Allosteric Modulation of GCase Enhances Lysosomal Activity and Reduces ER Stress in GCase-Related Disorders” (International Journal of Molecular Sciences, 2025).
Read-outs that look alike come from different tables or passages of the source.

Target: T1, rhGCase (Cerezyme) (Homo sapiens, UniProt P04062, R534H)
T1 construct: Human full-length wild-type GCase protein (Cerezyme®, Genzyme, Naarden, Netherlands); purchased Genzyme, Naarden, Netherlands
T1 sequence (P04062 40-536 R534H): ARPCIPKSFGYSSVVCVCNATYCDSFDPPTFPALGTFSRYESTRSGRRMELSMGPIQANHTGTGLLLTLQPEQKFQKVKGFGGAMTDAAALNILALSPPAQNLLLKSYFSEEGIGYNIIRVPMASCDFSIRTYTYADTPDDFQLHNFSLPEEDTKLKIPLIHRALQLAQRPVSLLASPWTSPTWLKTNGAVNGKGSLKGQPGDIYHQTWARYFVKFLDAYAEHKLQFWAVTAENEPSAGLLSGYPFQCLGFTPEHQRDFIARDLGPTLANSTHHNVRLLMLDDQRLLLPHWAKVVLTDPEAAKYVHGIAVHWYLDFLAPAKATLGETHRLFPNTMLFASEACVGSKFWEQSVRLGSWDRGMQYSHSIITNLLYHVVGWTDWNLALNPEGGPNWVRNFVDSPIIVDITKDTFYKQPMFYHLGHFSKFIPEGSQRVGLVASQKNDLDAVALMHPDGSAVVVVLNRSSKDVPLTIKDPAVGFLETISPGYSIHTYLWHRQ
Experiment: nanoDSF thermal stability of rhGCase
Assay type: binding
Procedure: The stabilizing effects of GT-02287 and GT-02329 on GCase were assessed by nanoDSF. rhGCase protein (Cerezyme®, Genzyme, Naarden, Netherlands) was prepared at 0.1 mg/mL in two buffers: buffer 1 (10 mmol/L Citric Acid, 20 mmol/L Na2HPO4, pH 7.0) and buffer 2 (50 mmol/L Histidine, 150 mmol/L NaCl, pH 5.0). DMSO was added to a final concentration of 2%.
Samples were loaded into nanoDSF standard capillaries and analyzed using the Prometheus NT.48 instrument (NanoTemper Technologies, Munich, Germany). The thermal unfolding of GCase was monitored by tracking intrinsic fluorescence changes in tryptophan and tyrosine residues as the temperature increased from 20 °C to 95 °C at 2 °C/min. Each condition was run in duplicate at 25 μM and 100 μM compound concentrations. Melting temperatures (Tm) were determined from the fluorescence curves, and ΔTm shifts between compound-treated and control samples were calculated. The significance of Tm shifts was assessed using two criteria: an absolute ΔTm shift greater than 1.0 °C (instrumental criterion) and an absolute ΔTm standard deviation of 0.2 °C or less (statistical criterion).

- Effect on protein thermal stability at pH 5.0 (pH 5.0): demonstrated stabilization
- ΔTm at 100 µM (pH 5.0, 100 µM compound, mean ± SD of two experiments, read-out: ΔTm at pH 5.0 and 100 µM): 3 °C
- ΔTm at 25 µM (pH 7.0, 25 µM compound, mean ± SD of two experiments): 9.9 ± 0.2 °C
- ΔTm at 100 µM (pH 7.0, 100 µM compound, mean ± SD of two experiments, read-out: ΔTm at pH 7.0 and 100 µM): 11.5 °C
SMILES: OC[C@H]1CNC[C@@H](O)[C@@H]1O [IFG, isofagomine]
